# Reference: patent publication US9676782B2, “Substituted pyrazolo[1,5-a]pyrazines as negative allosteric modulators of metabotropic glutamate receptor 3” (Vanderbilt University, priority 2014, dated 2017)
# pEC50, pIC50: −log10 of the molar value. Where two headings read alike, the source gives them in different places.
# Columns and labels:
# [1] = target: rat mGlu3 (Rattus norvegicus (Rat), UniProt P31422); assay: mGlu3 Ca2+ flux assay; type: cell-based; conditions: for remaining activity at 30 µM: amplitude of response at 30 μM test compound as % of maximal response to glutamate, read-out: rat mGlu3 Glu max (%)
# Method: (§1) The cells were grown overnight at 37° C. in the presence of 5% CO2. […] Dye was removed, 20 μL of assay buffer was added, and the plate was incubated for 10 minutes at room temperature. Ca^2+ flux was measured using the Functional Drug Screening System (FDSS7000, Hamamatsu, Japan). […] All test compounds were dissolved and diluted to a concentration of 10 mM in 100% DMSO. […] Calcium fluorescence measures were recorded as fold over basal fluorescence; raw data was then normalized to the maximal response to glutamate. […] The raw data file containing all time points was used as the data source in the analysis template. This was saved by the FDSS as a tab-delimited text file. Data were normalized using a static ratio function (F/F0) for each measurement of the total 360 values per well divided by each well's initial value. […] This is sufficient time to capture the peak amplitude of the cellular calcium response. […] EC50 values for test compounds were generated by fitting the normalized values versus the log of the test compound concentration (in mol/L) using a 4 parameter logistic equation where none of the parameters were fixed. Each of the three values collected at each concentration of test compound were weighted evenly.
# [2] = target: rat mGlu5 (Rattus norvegicus (Rat), UniProt P31424); assay: mGlu5 Ca2+ flux assay; type: cell-based; conditions: for Emax at 30 µM: PAM, amplitude of response at 30 μM test compound as % of maximal response to glutamate, read-out: rat mGlu5 Glu max (%); for Fold selectivity (mGlu3 vs. mGlu5): ratio of rat mGlu5 EC50 or IC50 to rat mGlu3 IC50
# Method: as §1, with “for 5” for “for 10”
# [3] = read-out: rat mGlu5 EC50 or IC50
# [4] = NAM potency, decrease of glutamate EC80 response, >30,000 = no measurable activity, >10,000 = no plateau, read-out: rat mGlu3 IC50
# [5] = Table 2 compounds with X = O, response at 30 μM compound as percentage of maximal glutamate response
# rat mGlu3, sequence (P31422 23-879): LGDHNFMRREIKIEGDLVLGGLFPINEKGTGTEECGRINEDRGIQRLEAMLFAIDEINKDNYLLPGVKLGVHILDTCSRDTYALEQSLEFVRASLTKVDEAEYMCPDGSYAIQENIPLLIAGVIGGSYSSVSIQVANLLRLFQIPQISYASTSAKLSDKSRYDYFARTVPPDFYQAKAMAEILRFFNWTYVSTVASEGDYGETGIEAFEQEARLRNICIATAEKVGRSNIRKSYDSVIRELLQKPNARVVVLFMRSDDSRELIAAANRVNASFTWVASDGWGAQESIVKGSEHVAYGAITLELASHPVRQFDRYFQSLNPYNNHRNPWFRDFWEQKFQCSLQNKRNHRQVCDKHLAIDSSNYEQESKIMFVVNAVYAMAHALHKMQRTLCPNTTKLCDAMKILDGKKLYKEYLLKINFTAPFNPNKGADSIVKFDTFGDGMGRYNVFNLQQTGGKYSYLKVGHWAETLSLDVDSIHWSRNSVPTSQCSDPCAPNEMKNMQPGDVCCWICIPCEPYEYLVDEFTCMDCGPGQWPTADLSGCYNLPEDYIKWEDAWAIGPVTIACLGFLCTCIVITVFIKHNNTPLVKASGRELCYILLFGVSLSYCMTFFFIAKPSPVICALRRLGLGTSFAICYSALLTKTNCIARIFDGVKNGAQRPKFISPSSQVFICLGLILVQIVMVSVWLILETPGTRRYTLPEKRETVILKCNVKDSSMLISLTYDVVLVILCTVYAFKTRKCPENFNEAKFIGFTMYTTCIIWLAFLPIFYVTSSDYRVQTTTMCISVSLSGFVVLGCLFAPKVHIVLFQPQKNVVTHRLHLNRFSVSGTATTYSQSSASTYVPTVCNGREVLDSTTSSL
# rat mGlu5, sequence (P31424 21-1203): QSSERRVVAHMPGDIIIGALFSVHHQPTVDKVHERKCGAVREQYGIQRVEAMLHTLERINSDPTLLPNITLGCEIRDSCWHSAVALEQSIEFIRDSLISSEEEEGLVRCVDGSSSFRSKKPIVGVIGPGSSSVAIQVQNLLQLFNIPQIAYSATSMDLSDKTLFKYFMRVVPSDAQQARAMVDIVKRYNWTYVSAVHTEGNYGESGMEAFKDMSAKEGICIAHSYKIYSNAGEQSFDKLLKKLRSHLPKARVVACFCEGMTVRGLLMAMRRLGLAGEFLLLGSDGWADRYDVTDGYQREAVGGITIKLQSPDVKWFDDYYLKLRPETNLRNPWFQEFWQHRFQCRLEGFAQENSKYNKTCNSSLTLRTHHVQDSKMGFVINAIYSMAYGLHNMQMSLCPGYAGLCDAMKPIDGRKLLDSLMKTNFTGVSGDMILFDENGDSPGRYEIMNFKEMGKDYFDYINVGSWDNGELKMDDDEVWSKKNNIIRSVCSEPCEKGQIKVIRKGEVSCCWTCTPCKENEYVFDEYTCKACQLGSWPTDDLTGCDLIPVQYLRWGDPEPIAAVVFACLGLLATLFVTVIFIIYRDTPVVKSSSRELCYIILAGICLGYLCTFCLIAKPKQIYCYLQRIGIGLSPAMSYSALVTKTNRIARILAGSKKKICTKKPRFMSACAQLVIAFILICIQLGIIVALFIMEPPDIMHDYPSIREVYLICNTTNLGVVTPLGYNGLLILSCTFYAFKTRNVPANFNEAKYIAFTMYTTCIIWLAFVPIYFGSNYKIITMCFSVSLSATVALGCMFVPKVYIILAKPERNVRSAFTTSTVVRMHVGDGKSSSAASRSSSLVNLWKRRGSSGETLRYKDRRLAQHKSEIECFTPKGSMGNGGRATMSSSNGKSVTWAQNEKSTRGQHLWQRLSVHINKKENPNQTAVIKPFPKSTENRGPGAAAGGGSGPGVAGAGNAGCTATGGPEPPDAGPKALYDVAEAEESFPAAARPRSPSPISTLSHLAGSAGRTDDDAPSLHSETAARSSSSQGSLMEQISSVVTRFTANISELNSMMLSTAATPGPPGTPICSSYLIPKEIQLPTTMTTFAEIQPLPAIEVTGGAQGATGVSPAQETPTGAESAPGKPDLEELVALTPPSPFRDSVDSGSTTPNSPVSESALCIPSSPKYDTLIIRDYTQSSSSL
pIC50 ([1]; read-out: rat mGlu3 IC50),"pIC50 ([1]; Table 2 compounds with X = O, read-out: mGlu3 IC50)","mGlu3 Glu max [1, 5] [%]","pEC50 ([2]; Table 2 compounds with X = O, read-out: mGlu5 EC50)","mGlu5 Glu max [2, 5] [%]",SMILES,remaining activity at 30 µM [1] [%],Emax at 30 µM [2] [%],Fold selectivity (mGlu3 vs. mGlu5) [2],"pEC50 [2, 3]","pIC50 [1, 4]"
5.88,,,,,"C[C@H]1CN(c2ccc(F)cc2)C(=O)c2cc(CNc3cccc(Cl)c3)nn21 [Compound 49, (S)-2-(((3-chlorophenyl)amino)methyl)-5-(4-fluorophenyl)-7-methyl-6,7-dihydropyrazolo[1,5-a]pyrazin-4(5H)-one]",-0.54,76.5,4.45,5.23,
,,,,,"COc1ccc(N(C)Cc2cc3n(n2)CCN(c2c(F)cc(F)cc2F)C3=O)cc1 [Compound 102, 2-(((4-methoxyphenyl)(methyl)amino)methyl)-5-(2,4,6-trifluorophenyl)-6,7-dihydropyrazolo[1,5-a]pyrazin-4(5H)-one]",1.68,,>37,< 4.52,6.10
,,,,,"COc1ccc(N(C)Cc2cc3n(n2)CCN(c2ccc(Cl)cn2)C3=O)cc1 [Compound 124, 5-(5-chloropyridin-2-yl)-2-(((4-methoxyphenyl)(methyl)amino)methyl)-6,7-dihydropyrazolo[1,5-a]pyrazin-4(5H)-one]",1.64,,>32,< 4.52,6.04
,,,,,"COc1ccc(N(C)Cc2cc3n(n2)CCN(c2ccc(OC)cc2)C3=O)cc1 [Compound 114, 5-(4-methoxyphenyl)-2-(((4-methoxyphenyl)(methyl)amino)methyl)-6,7-dihydropyrazolo[1,5-a]pyrazin-4(5H)-one]",1.7,,>21,< 4.52,5.86
,,,,,"COc1ccc(N(C)Cc2cc3n(n2)CCN(c2ccc(Cl)c(F)c2)C3=O)cc1 [Compound 136, 5-(4-chloro-3-fluorophenyl)-2-(((4-methoxyphenyl)(methyl)amino)methyl)-6,7-dihydropyrazolo[1,5-a]pyrazin-4(5H)-one]",2.43,,>23,< 4.52,5.90
,6.88,1,6.72,69,"O=C1c2cc(COc3cccc(F)c3)nn2CCN1c1ccc(F)cc1 [drawing 31 X = O, reference compound]",,,,,
,,,,,"COc1cccc(NCc2cc3n(n2)[C@H](C)CN(c2ccc(F)cc2)C3=O)c1 [Compound 52, (R)-5-(4-fluorophenyl)-2-(((3-methoxyphenyl)amino)methyl)-7-methyl-6,7-dihydropyrazolo[1,5-a]pyrazin-4(5H)-one]",4.06,,>11,< 4.52,5.57
,,,,,"Cc1ccc(N2CCn3nc(CNc4ccc(OC(F)F)cc4F)cc3C2=O)nc1 [Compound 144, 2-(((4-(difluoromethoxy)-2-fluorophenyl)amino)methyl)-5-(5-methylpyridin-2-yl)-6,7-dihydropyrazolo[1,5-a]pyrazin-4(5H)-one]",5.68,,>17,< 4.52,5.76
,,,,,"C[C@H]1CN(c2ccc(F)cc2)C(=O)c2cc(CNc3cccc(F)c3F)nn21 [Compound 69, (S)-2-(((2,3-difluorophenyl)amino)methyl)-5-(4-fluorophenyl)-7-methyl-6,7-dihydropyrazolo[1,5-a]pyrazin-4(5H)-one]",2.19,89.1,2.59,5.24,5.65
,,,,,"COc1ccc(N(C)Cc2cc3n(n2)CCN(c2cc(F)ccc2Cl)C3=O)cc1 [Compound 129, 5-(2-chloro-5-fluorophenyl)-2-(((4-methoxyphenyl)(methyl)amino)methyl)-6,7-dihydropyrazolo[1,5-a]pyrazin-4(5H)-one]",2.02,,>14,< 4.52,5.69
,,,,,"C[C@H]1CN(c2ccc(F)cc2)C(=O)c2cc(CNc3ccc(CC#N)cc3)nn21 [Compound 67, (S)-2-(4-(((5-(4-fluorophenyl)-7-methyl-4-oxo-4,5,6,7-tetrahydropyrazolo[1,5-a]pyrazin-2-yl)methyl)amino)phenyl)acetonitrile]",1.96,,>11,< 4.52,5.59
,,,,,"CC(Nc1ccccc1)c1cc2n(n1)CCN(c1ccc(F)cc1)C2=O (stereo not shown) [Compound 170, 5-(4-fluorophenyl)-2-(1-(phenylamino)ethyl)-6,7-dihydropyrazolo[1,5-a]pyrazin-4(5H)-one]",0.67,,>10,< 4.52,5.55
,,,,,"COc1ccc(NCc2cc3n(n2)CCN(c2ccc(F)cc2)C3=O)cc1 [Compound 17, 5-(4-fluorophenyl)-2-(((4-methoxyphenyl)amino)methyl)-6,7-dihydropyrazolo[1,5-a]pyrazin-4(5H)-one]",1.55,,>14,< 4.52,5.67
,,,,,"C[C@@H]1CN(c2ccc(F)cc2)C(=O)c2cc(CNc3ccc(F)c(F)c3)nn21 [Compound 77, (R)-2-(((3,4-difluorophenyl)amino)methyl)-5-(4-fluorophenyl)-7-methyl-6,7-dihydropyrazolo[1,5-a]pyrazin-4(5H)-one]",3.77,,>19,< 4.52,5.80
,,,,,"O=C1c2cc(CNc3ccc(OC(F)F)cc3F)nn2CCN1c1ccc(F)cc1F [Compound 141, 2-(((4-(difluoromethoxy)-2-fluorophenyl)amino)methyl)-5-(2,4-difluorophenyl)-6,7-dihydropyrazolo[1,5-a]pyrazin-4(5H)-one]",1.87,,>42,< 4.52,6.15
,,,,,"C[C@H]1CN(c2ccc(F)cc2)C(=O)c2cc(CNc3ccc(OC(F)F)cc3)nn21 [Compound 65, (S)-2-(((4-(difluoromethoxy)phenyl)amino)methyl)-5-(4-fluorophenyl)-7-methyl-6,7-dihydropyrazolo[1,5-a]pyrazin-4(5H)-one]",2.16,,>22,< 4.52,5.87
,,,,,"N#Cc1cccc(NCc2cc3n(n2)CCN(c2ccc(F)cc2)C3=O)c1 [Compound 11, 3-(((5-(4-fluorophenyl)-4-oxo-4,5,6,7-tetrahydropyrazolo[1,5-a]pyrazin-2-yl)methyl)amino)benzonitrile]",1.48,,>24,< 4.52,5.90
,,,,,"O=C1c2cc(CNc3ccccc3Cl)nn2CCN1c1ccc(F)cc1 [Compound 5, 2-(((2-chlorophenyl)amino)methyl)-5-(4-fluorophenyl)-6,7-dihydropyrazolo[1,5-a]pyrazin-4(5H)-one]",2.08,65.4,1.72,5.66,5.90
,,,,,"COc1ccc(N(C)Cc2cc3n(n2)CCN(c2csc(C)n2)C3=O)cc1 [Compound 115, 2-(((4-methoxyphenyl)(methyl)amino)methyl)-5-(2-methylthiazol-4-yl)-6,7-dihydropyrazolo[1,5-a]pyrazin-4(5H)-one]",3.88,,>18,< 4.52,5.79
,,,,,"O=C1c2cc(CNc3ncccc3C(F)(F)F)nn2CCN1c1ccc(F)cc1 [Compound 162, 5-(4-fluorophenyl)-2-(((3-(trifluoromethyl)pyridin-2-yl)amino)methyl)-6,7-dihydropyrazolo[1,5-a]pyrazin-4(5H)-one]",0.79,,>7.8,< 4.52,5.42
,,,,,"C[C@H]1CN(c2ccc(F)cc2)C(=O)c2cc(CNc3c(F)cccc3F)nn21 [Compound 73, (S)-2-(((2,6-difluorophenyl)amino)methyl)-5-(4-fluorophenyl)-7-methyl-6,7-dihydropyrazolo[1,5-a]pyrazin-4(5H)-one]",4.07,63.9,,,
